Values joined by “and” are separate entries in the source; they are usually repeats but may differ in a detail not shown here. Equal entries are not always repeated. Where two headings read alike, the source gives them in different places.
What was measured:
5HT2C (h) = 5HT2C (h) (Homo sapiens, UniProt P28335); assay: 5HT subtype antagonism assay (Eurofins Cerep): 5HT2C; type: cell-based
in vitro [1] = details: rat, plasma
[2] = Hepatocyte stability test, human; type: in vitro ADME; details: both sexes, cryopreserved hepatocytes, pH 7.4, read-out: Hepatocyte stability (% remaining after 3 h)
Method: (§1) Hepatocyte incubations for the test compound (10 μM final concentration, n = 2 per each time point) were carried out in mouse, rat, dog, monkey and human cryopreserved hepatocytes, resuspended at a density of 0.5 million cells/ml of modified Krebs-Henseleit buffer (KHB). The information regarding the hepatocytes used in the experiment is as follows: liverPool® 10-donor mixed gender human (BioIVT, Cat.No. X008001, lot EAV), male cynomolgus monkey (BioIVT, Cat.No. M00305, lot COJ), male Beagle dog (BioIVT, Cat.No. M00205, lot USY), male Sprague Dawley rat (BioIVT, Cat.No. M00005, lot TQE) and male CD1 mouse (BioIVT, Cat.No.005052, lot LFF). In addition, the compound was also incubated with blank KHB. The final concentration of solvent (DMSO) was 0.1% of the final volume. The incubations were performed for 3 hours at 37°C and pH 7.4. Reactions were terminated at 0 and 180 minutes by the addition of 3 volumes of stop solution (acetonitrile/methanol (2:1, v/v) containing internal standard–diclofenac at 100 ng/ml). Samples (compound spiked buffer and compound spiked hepatocytes, as well as blank samples, i.e. hepatocytes with the same DMSO%) were then centrifuged and aliquots were transferred to 96-deep micronic tubes and frozen at -80 °C until LC-MS/MS analysis. […]

5HT3 = 5HT3 (Homo sapiens, UniProt P46098); assay: 5HT subtype selectivity: 5HT3; type: cell-based; details: concentration not given
Method: The derivatives were evaluated at a concentration of 1 μM for their antagonist activity on the 5HT2A receptor (Tables 1–3)[33],[34]. Human 5HT2A stably transfected HEK293 cells (a type of cell derived from kidney embryos)[20] were seeded in a 96-well plate (Costar; 3603) at a density of 9 × 10^4 in 100 μL of minimum essential medium (Welgene; LM007-86) containing 10% dialyzed fetal bovine serum (Gibco; 30067–334) and 1% penicillin/streptomycin (Gibco; 15140-122) and kept in a 37 °C incubator for 24 h. The cells were stained with 100 μL of cytosolic calcium dye using the FLIPR calcium 6 assay solution (Molecular devices, #R8190) supplemented with 2.5 mM probenecid (Sigma; P8761) and incubated for 1 h at 37 °C. After 1 h, the designated amount of the compound was treated in each well and incubated for another 1 h at 37 °C. Then, the cells were loaded in a Flexstation 3 microplate reader (Molecular Devices; FlexStaion) and 50 μL of 5 μM 5HT (serotonin hydrochloride, Sigma; H9523) was injected from a source plate (Nunc 96-well polystyrene conical bottom MicroWell Plate, Thermo; 249662) and the fluorescence intensity (Ex/Em-485nm/ 525 nm) was measured. (Supplementary Fig. 5) For determining the IC50 values of other 5HT subtypes, an Inhibition assay was performed by Eurofins Cerep (Study ID: FR095-0014987, FR095-0016438). […]

[3] = 3weeks
5HT2A = 5HT2A (Homo sapiens, UniProt P28223); assay: 5HT subtype antagonism assay (selectivity panel): 5HT2A; details: concentration not given
Col1a1 = assay: CDAHFD mice: liver Col1a1 RNA expression (qRT-PCR); type: in vivo, mouse; details: for Relative liver Col1a1 expressions in mice, measured using quantitative RT-PCR: individual mice and Average; for Col1A1 mRNA, Mean Diff.: Tukey; for Col1A1 mRNA, Median / Col1A1 mRNA, Mean: n=5; for Col1A1 mRNA, Mean: Column A = 1
Description: C57BL/6 J male mice were purchased from the Japan SLC. Inc (Hamamatsu, Japan). Mice (5 weeks old) were fed Teklad Certitied Irradiated Global 18% protein rodent diet purchased from Dooyeol Biotech Co. Ltd (Seoul, South Korea) during the acclimation period. The liver fibrosis/inflammation-induced groups were CDAHFD-fed (A06071302, Research diet). […]. […] All animal experiments complied with the relevant ethical regulations.
The frozen liver tissue was homogenized and put into QiAzol (Qiagen, Hilden) to isolate RNA, and 4 μg of RNA was synthesized into cDNA using the RevertAid First Strand cDNA synthesis kit (Thermo Fischer, Waltham). The expressions of mouse collagen I (Forward: 5’-TGTGTTCCCTACTCAGCCGTG-3’. Reverse: 5’-CATCGGTCATGCTCTCTCCAA-3’), mouse α-SMA (Forward:5’-TCCTGACGCTGAAGTATCCGAT-3’, Reverse: 5’-GGCCACACAAAGCTCGTTATAG-3’) and mouse 36B4 (Forward: 5’-ACCTCCTTCTTCCAGGCTTT-3’, Reverse: 5’-CTCCAGTCTTTATCAGCTGC-3’) as house-keeping gene were measured using ViiA 7 Real-time PCR system (Thermo Fischer scientific).

in vitro [4] = details: Chinese hamster
CYP2D6 = CYP2D6 (Homo sapiens, UniProt P10635); assay: in vitro
[5] = Hepatocyte stability test, rat; type: in vitro ADME; details: male, Sprague Dawley, cryopreserved hepatocytes, pH 7.4, read-out: Hepatocyte stability (% remaining after 3 h)
Method: as §1

[6] = Hepatocyte stability test, dog; type: in vitro ADME; details: male, beagle, cryopreserved hepatocytes, pH 7.4, read-out: Hepatocyte stability (% remaining after 3 h)
Method: as §1

[7] = Column C (11c 5mpk) vs. Column B
[8] = Column D (11c 10mpk) vs. Column B

Sequence of 5HT2C (h) (P28335 33-458): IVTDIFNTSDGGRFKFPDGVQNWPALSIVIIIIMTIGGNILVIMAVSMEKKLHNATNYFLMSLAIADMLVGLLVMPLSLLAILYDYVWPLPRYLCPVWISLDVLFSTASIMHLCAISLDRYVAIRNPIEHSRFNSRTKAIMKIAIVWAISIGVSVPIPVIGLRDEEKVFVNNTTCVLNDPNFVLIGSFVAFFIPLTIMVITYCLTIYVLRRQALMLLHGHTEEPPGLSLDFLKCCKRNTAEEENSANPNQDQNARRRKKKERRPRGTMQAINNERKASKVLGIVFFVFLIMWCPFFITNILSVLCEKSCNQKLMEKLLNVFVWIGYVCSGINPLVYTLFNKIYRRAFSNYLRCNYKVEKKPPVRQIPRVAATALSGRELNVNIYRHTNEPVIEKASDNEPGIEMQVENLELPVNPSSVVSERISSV
Sequence of 5HT2A (P28223 whole entry): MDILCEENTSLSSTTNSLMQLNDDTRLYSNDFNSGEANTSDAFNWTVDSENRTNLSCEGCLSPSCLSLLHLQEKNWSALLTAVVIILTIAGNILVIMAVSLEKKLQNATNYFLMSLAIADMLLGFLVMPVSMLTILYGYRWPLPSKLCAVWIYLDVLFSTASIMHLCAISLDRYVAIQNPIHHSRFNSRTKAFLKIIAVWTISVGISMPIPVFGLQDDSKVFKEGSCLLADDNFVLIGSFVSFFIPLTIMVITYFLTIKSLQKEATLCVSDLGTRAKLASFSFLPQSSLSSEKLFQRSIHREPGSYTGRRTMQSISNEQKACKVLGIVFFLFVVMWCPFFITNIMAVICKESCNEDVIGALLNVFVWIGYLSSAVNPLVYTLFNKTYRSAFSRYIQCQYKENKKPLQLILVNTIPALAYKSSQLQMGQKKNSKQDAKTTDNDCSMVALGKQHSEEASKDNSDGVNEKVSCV
Sequence of CYP2D6 (P10635 whole entry): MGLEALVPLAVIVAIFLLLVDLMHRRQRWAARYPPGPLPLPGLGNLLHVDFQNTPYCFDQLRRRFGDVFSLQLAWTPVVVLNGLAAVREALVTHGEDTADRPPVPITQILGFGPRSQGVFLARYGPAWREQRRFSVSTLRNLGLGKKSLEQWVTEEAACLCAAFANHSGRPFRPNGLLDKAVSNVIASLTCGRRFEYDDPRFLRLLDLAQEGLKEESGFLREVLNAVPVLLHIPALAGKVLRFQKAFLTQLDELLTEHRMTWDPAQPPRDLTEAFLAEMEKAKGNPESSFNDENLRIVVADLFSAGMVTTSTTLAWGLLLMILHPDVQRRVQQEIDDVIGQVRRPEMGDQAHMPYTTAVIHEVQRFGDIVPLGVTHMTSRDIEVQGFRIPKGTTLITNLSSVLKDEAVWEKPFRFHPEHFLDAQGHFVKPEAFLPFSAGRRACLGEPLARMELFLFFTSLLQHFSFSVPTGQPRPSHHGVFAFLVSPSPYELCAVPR
Sequence of 5HT3 (P46098 24-478): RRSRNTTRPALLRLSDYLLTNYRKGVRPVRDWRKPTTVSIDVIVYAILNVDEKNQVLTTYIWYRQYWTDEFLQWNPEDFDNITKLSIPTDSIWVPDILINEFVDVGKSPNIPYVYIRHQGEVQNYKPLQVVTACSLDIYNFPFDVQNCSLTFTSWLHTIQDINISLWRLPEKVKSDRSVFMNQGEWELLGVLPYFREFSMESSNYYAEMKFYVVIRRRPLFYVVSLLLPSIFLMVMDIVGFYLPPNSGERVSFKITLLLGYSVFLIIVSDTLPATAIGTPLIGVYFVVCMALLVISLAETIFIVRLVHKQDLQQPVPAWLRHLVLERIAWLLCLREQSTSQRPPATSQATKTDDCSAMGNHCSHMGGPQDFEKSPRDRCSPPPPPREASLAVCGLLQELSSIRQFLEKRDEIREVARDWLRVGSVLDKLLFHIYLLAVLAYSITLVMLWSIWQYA

Cc1nc2n(c(=O)c1CCN1CCC(=C3c4ccc(Cl)cc4CCc4cccnc43)CC1)CCCC2O (stereo not drawn) [Compound 11c]
Selectivity 2 C: % inhibition (5HT2C (h); concentration not given): 103%
IC50 (5HT2C (h); read-out: Selectivity 2 C: IC50): 170 nM
remaining at 4 h (in vitro [1]): > 99.9%
remaining at 3 h, 10 μM [2]: 94%
Selectivity 3: % inhibition (5HT3): -1%
Chemical stability ([3]; 25 °C): 99.8%
Chemical stability ([3]; 60 °C): 99.6%
Selectivity 2 A: % inhibition (5HT2A): 102%
Relative liver Col1a1 expressions in mice, measured using quantitative RT-PCR (Col1a1; CDAHFD+11c 5 mpk): 27.265 and 19.811 and 25.539 and 19.317 and 28.556
Relative liver Col1a1 expressions in mice, measured using quantitative RT-PCR (Col1a1; CDAHFD+11c 5 mpk, mean): 24.098
Relative liver Col1a1 expressions in mice, measured using quantitative RT-PCR (Col1a1; CDAHFD+11c 10mpk): 18.660 and 20.539 and 29.586 and 37.388 and 28.021
Relative liver Col1a1 expressions in mice, measured using quantitative RT-PCR (Col1a1; CDAHFD+11c 10mpk, mean): 26.839
mRNA expression of Col1a1 in liver tissue (Col1a1; CDAHFD-fed 11c vs CDAHFD-fed vehicle group): significantly decreased
Col1A1 mRNA, Mean Diff. (Col1a1; Column A (Vehicle, no CDAHFD) vs. Column C (11c 5mpk)): -23.1
Col1A1 mRNA, Mean Diff. (Col1a1; Column A (Vehicle, no CDAHFD) vs. Column D (11c 10mpk)): -25.84
Col1A1 mRNA, Mean Diff. (Col1a1; Column B (CDAHFD+vehicle) vs. Column C (11c 5mpk)): 14.99
Col1A1 mRNA, Mean Diff. (Col1a1; Column B (CDAHFD+vehicle) vs. Column D (11c 10mpk)): 12.25
Col1A1 mRNA, Difference between medians: Actual (Col1a1; [7]): -15.12
Col1A1 mRNA, Difference between medians: Hodges-Lehmann (Col1a1; [7]): -15.12
Col1A1 mRNA, Mean Diff. (Col1a1; Column C (11c 5mpk) vs. Column D (11c 10mpk)): -2.741
Col1A1 mRNA, Median (Col1a1; Column C (11c 5mpk)): 25.54, n=5
Col1A1 mRNA, Mean (Col1a1; Column C (CDAHFD+11c 5mpk)): 24.1
Col1A1 mRNA, Difference between medians: Actual (Col1a1; [8]): -12.64
Col1A1 mRNA, Difference between medians: Hodges-Lehmann (Col1a1; [8]): -12.18
Col1A1 mRNA, Median (Col1a1; Column D (11c 10mpk)): 28.02, n=5
Col1A1 mRNA, Mean (Col1a1; Column D (CDAHFD+11c 10mpk)): 26.84
IC50 (in vitro [4]): > 100 µM
inhibition at 10 µM (CYP2D6): 26.3%
remaining at 3 h, 10 μM [5]: 68.9%
remaining at 3 h, 10 μM [6]: 88.5%

From publication PMC10799935, “Discovery of a peripheral 5HT2A antagonist as a clinical candidate for metabolic dysfunction-associated steatohepatitis” (Nature Communications, 2024)
